Experimental data as given in ChEMBL document CHEMBL1201862, “PubChem BioAssay data set” (2004).
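Assay format: 96-well plates, 48-hour exposure. The concentration for 50% growth inhibition is given as GI50.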 The source made the active and inactive calls. Rule as the data show it: active = GI50 up to about 1.1 µM and inactive = higher.

Columns and labels:
Test in all cases: inhibition of tumour cell growth, NCI panel, 48 h
[1] = test system: RXF 393
[2] = test system: CCRF-CEM
[3] = test system: SF-539
[4] = test system: IGROV-1
[5] = test system: PC-3
[6] = test system: OVCAR-5
[7] = test system: LOX IMVI
[8] = test system: CAKI-1
[9] = test system: ACHN
[10] = test system: OVCAR-4
[11] = test system: NCI-H460
[12] = test system: SNB-19
[13] = test system: SW-620
[14] = test system: Hs-578T
[15] = test system: COLO 205
[16] = test system: OVCAR-8
[17] = test system: MDA-MB-231
[18] = test system: NCI-H23
[19] = test system: OVCAR-3
[20] = test system: SK-MEL-28

SMILES	GI50 [1]	GI50 [2]	GI50 [3]	GI50 [4]	GI50 [5]	GI50 [6]	GI50 [7]	GI50 [8]	GI50 [9]	GI50 [10]	GI50 [11]	GI50 [12]	GI50 [13]	GI50 [14]	GI50 [15]	GI50 [16]	GI50 [17]	GI50 [18]	GI50 [19]	GI50 [20]
COc1cc2ccc1OCc1cccc(n1)COc1ccc(cc1OC)/C=N\CCNCCNCC/N=C\2	> 100 µM (inactive)	> 100 µM (inactive)	> 100 µM (inactive)	> 100 µM (inactive)	> 100 µM (inactive)	> 100 µM (inactive)	> 100 µM (inactive)	> 100 µM (inactive)	> 100 µM (inactive)	> 100 µM (inactive)	> 100 µM (inactive)	> 100 µM (inactive)	> 100 µM (inactive)	> 100 µM (inactive)	> 100 µM (inactive)	> 100 µM (inactive)	> 100 µM (inactive)	> 100 µM (inactive)	> 100 µM (inactive)	–
CN1C2CCC1CN(CCOC(c1ccc(F)cc1)c1ccc(F)cc1)C2	16.5 µM (inactive)	36.7 µM (inactive)	16.6 µM (inactive)	36.1 µM (inactive)	28.6 µM (inactive)	56.6 µM (inactive)	19.8 µM (inactive)	45.8 µM (inactive)	40.6 µM (inactive)	43.8 µM (inactive)	20.9 µM (inactive)	> 100 µM (inactive)	23.6 µM (inactive)	42.7 µM (inactive)	15.3 µM (inactive)	32.4 µM (inactive)	22.9 µM (inactive)	69.7 µM (inactive)	47.1 µM (inactive)	15.5 µM (inactive)
N#Cc1nc(-c2cccs2)oc1N	> 100 µM (inactive)	70.6 µM (inactive)	> 100 µM (inactive)	> 100 µM (inactive)	> 100 µM (inactive)	> 100 µM (inactive)	63.5 µM (inactive)	3.09 µM (inactive)	> 100 µM (inactive)	> 100 µM (inactive)	> 100 µM (inactive)	> 100 µM (inactive)	> 100 µM (inactive)	> 100 µM (inactive)	> 100 µM (inactive)	> 100 µM (inactive)	51.3 µM (inactive)	> 100 µM (inactive)	> 100 µM (inactive)	> 100 µM (inactive)
O=c1c2cc(I)ccc2nc(SCc2nncs2)n1Cc1ccccc1	13.6 µM (inactive)	5.71 µM (inactive)	22.8 µM (inactive)	3.89 µM (inactive)	13.8 µM (inactive)	99.5 µM (inactive)	29.5 µM (inactive)	2.15 µM (inactive)	9.33 µM (inactive)	12.6 µM (inactive)	7.62 µM (inactive)	19.5 µM (inactive)	> 100 µM (inactive)	16.3 µM (inactive)	20.2 µM (inactive)	36.5 µM (inactive)	16.8 µM (inactive)	25.6 µM (inactive)	12.3 µM (inactive)	90.2 µM (inactive)
C[C@]12CC[C@H]3[C@@H](CC[C@]4(O)C[C@@H](O)CC[C@]34CO)[C@@]1(O)CC[C@@H]2C1=CC(=O)OC1 [STROPHANTHIDOL]	0.223 µM (active)	0.522 µM (active)	1.15 µM (inactive)	2.79 µM (inactive)	2 µM (inactive)	3.07 µM (inactive)	2.01 µM (inactive)	0.494 µM (active)	0.467 µM (active)	1.12 µM (inactive)	0.431 µM (active)	5.94 µM (inactive)	2.37 µM (inactive)	1.46 µM (inactive)	3.73 µM (inactive)	1.77 µM (inactive)	8.45 µM (inactive)	1.48 µM (inactive)	0.993 µM (active)	4.78 µM (inactive)
C#CC(O)(c1nc2ccccc2s1)c1nc2ccccc2s1	18.6 µM (inactive)	27.4 µM (inactive)	17.4 µM (inactive)	15.2 µM (inactive)	19 µM (inactive)	23.6 µM (inactive)	17.8 µM (inactive)	23.5 µM (inactive)	23 µM (inactive)	25.8 µM (inactive)	–	36.9 µM (inactive)	33.7 µM (inactive)	36.4 µM (inactive)	17.7 µM (inactive)	22 µM (inactive)	15.7 µM (inactive)	20.3 µM (inactive)	18.1 µM (inactive)	40.7 µM (inactive)
CC(C)[C@H]1NC(=O)[C@H]2N=C(O[C@@H]2C)[C@@H]2CCCN2C(=O)[C@H](Cc2ccccc2)NC(=O)[C@@H]2COC(=N2)[C@@H](Cc2ccccc2)NC(=O)[C@@H]2COC1=N2	> 100 µM (inactive)	> 100 µM (inactive)	> 100 µM (inactive)	> 100 µM (inactive)	> 100 µM (inactive)	> 100 µM (inactive)	> 100 µM (inactive)	> 100 µM (inactive)	> 100 µM (inactive)	> 100 µM (inactive)	–	> 100 µM (inactive)	> 100 µM (inactive)	> 100 µM (inactive)	> 100 µM (inactive)	> 100 µM (inactive)	> 100 µM (inactive)	> 100 µM (inactive)	> 100 µM (inactive)	> 100 µM (inactive)
CCC(C#N)N(Cc1cccc(CN(C(C)=O)C(C#N)CC)c1)C(C)=O (stereo unspecified)	> 100 µM (inactive)	> 100 µM (inactive)	> 100 µM (inactive)	> 100 µM (inactive)	> 100 µM (inactive)	> 100 µM (inactive)	> 100 µM (inactive)	> 100 µM (inactive)	> 100 µM (inactive)	31.4 µM (inactive)	–	> 100 µM (inactive)	> 100 µM (inactive)	> 100 µM (inactive)	> 100 µM (inactive)	> 100 µM (inactive)	46.6 µM (inactive)	> 100 µM (inactive)	> 100 µM (inactive)	–
COc1ccc(/C=C2\N=C(c3ccccc3)N(C3Nc4cc5c(cc4S3)NC(N3C(=O)/C(=C/c4ccc(OC)cc4)N=C3c3ccccc3)S5)C2=O)cc1 (stereo unspecified)	> 100 µM (inactive)	–	11.6 µM (inactive)	> 100 µM (inactive)	83.6 µM (inactive)	> 100 µM (inactive)	37.3 µM (inactive)	> 100 µM (inactive)	90.4 µM (inactive)	38.3 µM (inactive)	12.7 µM (inactive)	–	61.5 µM (inactive)	48.5 µM (inactive)	–	27.1 µM (inactive)	> 100 µM (inactive)	42.9 µM (inactive)	43.6 µM (inactive)	> 100 µM (inactive)
CCOC(=O)COc1ccc(/C=C/C(=O)c2ccc(OC)cc2)cc1	18.1 µM (inactive)	20.9 µM (inactive)	19.6 µM (inactive)	45.2 µM (inactive)	22.9 µM (inactive)	37.4 µM (inactive)	16.3 µM (inactive)	> 10 µM (inactive)	33 µM (inactive)	–	–	41.8 µM (inactive)	20.7 µM (inactive)	25.9 µM (inactive)	35.4 µM (inactive)	24.5 µM (inactive)	37.6 µM (inactive)	25.8 µM (inactive)	30 µM (inactive)	19.3 µM (inactive)
C1=C2C3=[N+](CCCCC3)CC2Cc2ccsc21 (stereo unspecified)	> 100 µM (inactive)	> 100 µM (inactive)	–	> 100 µM (inactive)	39.5 µM (inactive)	> 100 µM (inactive)	84.7 µM (inactive)	> 100 µM (inactive)	> 100 µM (inactive)	43.4 µM (inactive)	29.9 µM (inactive)	81.1 µM (inactive)	93.5 µM (inactive)	> 100 µM (inactive)	40.6 µM (inactive)	76.6 µM (inactive)	> 100 µM (inactive)	49.9 µM (inactive)	56.5 µM (inactive)	> 100 µM (inactive)
CCOC(=O)CCNC(=O)c1cc(C)cc2c1Oc1c(cc(C)cc1C(=O)NCCC(=O)OCC)S2	20.9 µM (inactive)	> 100 µM (inactive)	50.4 µM (inactive)	> 100 µM (inactive)	> 100 µM (inactive)	> 100 µM (inactive)	95.9 µM (inactive)	65.6 µM (inactive)	> 100 µM (inactive)	> 100 µM (inactive)	–	42 µM (inactive)	> 100 µM (inactive)	34 µM (inactive)	> 100 µM (inactive)	78.3 µM (inactive)	25.2 µM (inactive)	> 100 µM (inactive)	> 100 µM (inactive)	> 100 µM (inactive)
NC(CC1=CS(=O)(=O)c2ccc(Cl)cc21)C(=O)O (stereo unspecified)	> 100 µM (inactive)	–	> 100 µM (inactive)	> 100 µM (inactive)	> 100 µM (inactive)	> 100 µM (inactive)	> 100 µM (inactive)	> 100 µM (inactive)	> 100 µM (inactive)	> 100 µM (inactive)	89.9 µM (inactive)	> 100 µM (inactive)	> 100 µM (inactive)	70.5 µM (inactive)	> 100 µM (inactive)	> 100 µM (inactive)	> 100 µM (inactive)	> 100 µM (inactive)	> 100 µM (inactive)	> 100 µM (inactive)
Cc1ccc(/C=N/Nc2cnccn2)s1	> 100 µM (inactive)	> 100 µM (inactive)	> 100 µM (inactive)	> 100 µM (inactive)	> 100 µM (inactive)	> 100 µM (inactive)	> 100 µM (inactive)	> 100 µM (inactive)	> 100 µM (inactive)	> 100 µM (inactive)	–	> 100 µM (inactive)	> 100 µM (inactive)	> 100 µM (inactive)	> 100 µM (inactive)	> 100 µM (inactive)	96.2 µM (inactive)	> 100 µM (inactive)	> 100 µM (inactive)	> 100 µM (inactive)
